Experimental data published in US7148193B2, “Compounds that bind to growth hormone receptor” (Antyra, Inc., priority 1997, dated 2006).
Where a SMILES comes first, the peptide text is derived from it. Bridges are numbered along the chain shown (N, C = ends).

Columns and labels:
rGHBP [1] = molecular target: T1, rGHBP (Rattus norvegicus, UniProt P16310); test: Time-resolved fluorometric detection (TRFD) of specific bLigand binding to rGHBP and its competition; details: TRFD
T1 construct: 1–48 of GHBP; The 3′ oligo used for this reaction encoded the mutation L43R (CTG→AGA); The second PCR reaction amplified the DNA encoding amino acids 38–260; 6xHis; made in house
T1 sequence (P16310 19-278 isoform P16310-2): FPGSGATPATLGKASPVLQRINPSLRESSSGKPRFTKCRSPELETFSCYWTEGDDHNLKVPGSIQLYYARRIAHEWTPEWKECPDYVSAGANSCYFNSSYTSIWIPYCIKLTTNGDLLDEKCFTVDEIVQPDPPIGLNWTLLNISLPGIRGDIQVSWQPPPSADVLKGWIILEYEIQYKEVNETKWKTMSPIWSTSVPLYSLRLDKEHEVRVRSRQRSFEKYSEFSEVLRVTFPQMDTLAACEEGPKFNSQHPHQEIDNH
Method: For this invention, saEu forms a ternary complex with bP and rGHBP (i.e., the rGHBP:bP:saEu complex). As described herein, the TRFD assay is performed using biotinylated GH (bGH) as bLigand. Biotinylated H5-mutant peptides bP#447 (SEQ ID NO:11) and bP#418 (SEQ ID NO:12) are also used as bLigand (see below). The TRFD assay described herein faithfully reports the competition of ligand binding to the active site of rGHR. To perform the TRFD assays, soluble rGHBP is attached to the surface of microtiter wells, then incubated with bP. Unbound bP is than washed away and (sa)Eu is added to complex with receptor bound bP. The rGHBP:bP bound (sa)Eu is then converted into its highly fluorescent state and detected by TRFD.
Wells were coated with rGHBP(100 ng/well) overnight as described. ED50 and IC50 were calculated from analysis of specific bLigand binding to rGHBP. Competitors were added 1 hr prior to addition of bLigand as described.
rGHBP (50–200 μg/ml in 50 mM NaHCO3) was coated onto low-fluorescence MaxiSorp (Nunc) plates (100 μl/well) overnight at 4° C. The plates were blocked with PBS containing 2% non-fat milk and 0.05% BSA for 2 hr at room temperature, followed by three PBS washes. For competitions, serial dilutions of unlabelled growth hormone (0.1 nM-100 nM) or MAb 2C3 (0.67–67 nM) were added to the plates (100 μl/well) and incubated at room temperature for 1–2 hr. Biotinylated peptide or biotinylated GH (10× concentrations) were incubated in blocking buffer for 30 min to decrease non-specific binding. Ten microliters of the 10× concentrated material was added to the plates and incubated at room temperature for 1 hr to overnight.
The plates were then washed five times with Tris-buffered saline (pH 7.5) containing 0.1% Tween-20 (TTBS). To each well, 100 μl of europium-labeled streptavidin in DELFIA assay buffer (100 mM Tris-HCl, pH 7.8; 150 mM NaCl; 0.5% BSA; 0.05% bovine Ig; 0.05% NaN3; 0.01% Tween-20) was added and incubated for 1.5 hr at room temperature. The plates were then washed five times with TTBS and tapped dry. Subsequently, 100 μl of DELFIA enhancement solution (100 mM acetone-potassium hydrogen phthalate, pH 3.2; 15 mM 2-naphtyltrifluoroacetate; […] tri(n-octyl)-phosphine oxide; 0.1% Triton X-100) was added to each well, and the plates were shaken for 10 min at room temperature. Fluorescence of each sample well was measured at 615 nm using a DELFIA 1234 fluorometer (EG&G Wallac). General procedure and references as described by Wallac are available in “Lanthanide labeling for time-resolved fluorometry”: Wallac publication 1244–1126-03.

rGHBP [2] = molecular target: T1, rGHBP; test: BIAcore affinity measurements of bPeptide binding to rGHBP; details: BIAcore appKD and phage competition
Method: GHBP was immobilized onto one flow-cell of a CM-5 sensor chip (Biosensor) using amine coupling chemistry and the manufacturer's recommended protocol. An unrelated IgG was immobilized in the same manner to another flow cell of the same chip as a control surface. Increasing concentrations of synthetic peptide were injected over both surfaces, and the binding responses were allowed to come to equilibrium. After subtraction of background binding from the control surface, the results were used to derive an equilibrium dissociation constant using Scatchard analysis.
The rat GHBP (100 μg/ml) was immobilized onto a CM-5 sensor chip using amino coupling chemistry and the manufacturer's recommended protocol. The final surface density was 4000 RU. A monoclonal antibody was immobilized onto another flow cell as a control surface. Peptides (50 μg/ml) were injected at a flow rate of 5 μl/min. Background binding to the control surface was subtracted prior to further analysis.

SMILES | binding better than H5WT or bP#445 (rGHBP [1]) [times] | affinity for rGHBP, ranking (rGHBP [2])
CC(C)C[C@@H]1NC(=O)[C@H](Cc2c[nH]c3ccccc23)NC(=O)CNC(=O)[C@@H]2CCCN2C(=O)[C@H](Cc2c[nH]c3ccccc23)NC(=O)[C@H]([C@@H](C)O)NC(=O)[C@H](C(C)C)NC(=O)[C@H](CCC(N)=O)NC(=O)[C@H](Cc2c[nH]c3ccccc23)NC(=O)[C@H](CO)NC(=O)[C@H](CCC(N)=O)NC(=O)[C@@H](NC(=O)[C@H](CC(C)C)NC(=O)[C@H](CC(=O)O)NC(=O)[C@H](CCCCN)NC(=O)[C@H](Cc2ccc(O)cc2)NC(=O)[C@@H](N)CC(=O)O)CSSC[C@@H](C(=O)N[C@@H](C)C(=O)N[C@@H](CCCCN)C(=O)N[C@@H](CCCCN)C(=O)O)NC(=O)[C@H](Cc2c[nH]c3ccccc23)NC(=O)CNC(=O)[C@H](C)NC1=O [#418] (H-DYKDLCQSWQVTWPGWLAGWCAKK-OH; disulfide 6-21; N-terminus and C-terminus assumed) | 10 | highest affinity
CC(C)C[C@@H]1NC(=O)[C@H](CCCNC(=N)N)NC(=O)[C@H](CCC(N)=O)NC(=O)[C@@H](NC(=O)[C@H](CC(C)C)NC(=O)[C@H](CC(=O)O)NC(=O)[C@H](CCCCN)NC(=O)[C@H](Cc2ccc(O)cc2)NC(=O)[C@@H](N)CC(=O)O)CSSC[C@@H](C(=O)N[C@@H](C)C(=O)N[C@@H](CCCCN)C(=O)N[C@@H](CCCCN)C(=O)O)NC(=O)[C@H](Cc2c[nH]c3ccccc23)NC(=O)CNC(=O)[C@H](CO)NC(=O)[C@H](CC(C)C)NC(=O)[C@H](Cc2c[nH]c3ccccc23)NC(=O)CNC(=O)[C@@H]2CCCN2C(=O)[C@H](Cc2c[nH]c3ccccc23)NC(=O)CNC(=O)[C@H](C(C)C)NC(=O)CNC1=O [#447] | 10 | highest affinity
